Assay results: patent publication US11325889B2, “Substituted 3-((3-aminophenyl)amino)piperidine-2,6-dione compounds, compositions thereof, and methods of treatment therewith” (Celgene Corporation, priority 2018, dated 2022)

Target: T1, AR protein in VCaP cells (Homo sapiens, UniProt P10275)
T1 construct: endogenous in cells; host or cells: VCaP cells
T1 sequence (P10275 1-920): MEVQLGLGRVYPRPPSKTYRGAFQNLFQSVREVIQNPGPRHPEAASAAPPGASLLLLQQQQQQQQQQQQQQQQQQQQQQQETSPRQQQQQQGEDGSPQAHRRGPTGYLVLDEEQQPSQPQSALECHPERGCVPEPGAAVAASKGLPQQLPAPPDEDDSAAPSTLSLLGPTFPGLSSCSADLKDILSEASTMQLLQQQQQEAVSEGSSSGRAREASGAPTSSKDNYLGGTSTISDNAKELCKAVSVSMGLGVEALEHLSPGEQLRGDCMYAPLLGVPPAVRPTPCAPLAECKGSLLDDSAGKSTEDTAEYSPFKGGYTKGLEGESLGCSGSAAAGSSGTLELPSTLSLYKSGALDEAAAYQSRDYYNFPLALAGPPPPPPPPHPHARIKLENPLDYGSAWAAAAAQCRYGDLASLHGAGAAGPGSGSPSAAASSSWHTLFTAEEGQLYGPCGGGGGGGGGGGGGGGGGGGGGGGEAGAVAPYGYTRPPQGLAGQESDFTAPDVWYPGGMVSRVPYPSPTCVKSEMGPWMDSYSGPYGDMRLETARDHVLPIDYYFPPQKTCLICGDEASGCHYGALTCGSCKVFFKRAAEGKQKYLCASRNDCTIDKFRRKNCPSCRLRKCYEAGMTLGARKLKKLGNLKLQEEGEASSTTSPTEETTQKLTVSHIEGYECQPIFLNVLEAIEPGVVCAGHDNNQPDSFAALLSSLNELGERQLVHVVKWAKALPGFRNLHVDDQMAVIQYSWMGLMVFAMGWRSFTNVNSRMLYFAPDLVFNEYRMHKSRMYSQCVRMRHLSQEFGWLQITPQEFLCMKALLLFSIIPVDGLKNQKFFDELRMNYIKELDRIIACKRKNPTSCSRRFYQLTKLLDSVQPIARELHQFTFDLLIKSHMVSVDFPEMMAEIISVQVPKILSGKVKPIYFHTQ
Experiment: VCAP AR Degradation Assay (AR ELISA, 24 h)
Type: cell-based
Settings: for Y (lowest measured AR level normalized to DMSO control): AR degradation efficiency; for DC50: concentration of compound when AR level = 50% of DMSO control, read-out: DC50
Description: VCAP AR Degradation Assay.
Test compounds were pre-dispensed into a Corning CellBind 96-well clear bottom plate (Cat #3300) using an acoustic dispenser to make a 10-point concentration series at 1:3 dilution for each compound. The final top concentration of each compound was […]. DMSO at a final concentration of 0.1% was used as a control. VCaP cells cultured in DMEM with 8% fetal bovine serum (FBS) were seeded at 50K cells per well in a 200 μL volume into the compound plate and incubated at 37° C. in a CO2 incubator for 24 h. The medium was carefully removed from the cells and the plate was placed on ice. One hundred […] of ice-cold 1× cell lysis buffer from Cell Signaling Technologies (Cat #9803) was added to each well of the cells and the plate was incubated at 4° C. on a shaker for 1 h. Fifteen […] of cell lysate was used for AR ELISA detection using a PathScan Total Sandwich AR ELISA kit (Cell Signaling Technology, Cat #12580). AR levels in compound-treated wells were normalized to that of DMSO control and expressed as percent of control (PoC) (y). A Four Parameter Logistic Model (Sigmoidal Dose-Response Model) was used to determine the compound's DC50, and EC50, using the following equation: y=(A+((B−A)/(1+((C/x)^D)))) • A=YMin (lowest AR level normalized to DMSO control in response to compound • treatment, as determined by curve fit) • B=YMax (maximum AR level as determined by curve fit) • C=EC50 • D=Hill Slope • x=compound concentration • EC50=the concentration of compound when y=(YMax−YMin)/2 • DC50=the concentration of the compound when y=50% of DMSO control (50% AR degradation) • y=AR protein level normalized to DMSO control
The lowest measured AR level normalized to DMSO control in response to compound treatment, termed Y value, was used to characterize the compound-mediated AR degradation efficiency.

Y (lowest measured AR level normalized to DMSO control) | DC50 | Structure (SMILES)
* (0<Y<=25%) | < 100 nM | CCc1cc(N2C(=S)N(c3cnc(C#N)c(C(F)(F)F)c3)C(=O)C2(C)C)ccc1OCCC1CCN([C@@H](C)C(=O)Nc2cc(C#N)cc(NC3CCC(=O)NC3=O)c2)CC1 (stereo partly drawn) [Cmpd 37, (2S)-N-(3-cyano-5-(2,6-dioxopiperidin-3-ylamino)phenyl)-2-(4-(2-(4-(3-(6-cyano-5-(trifluoromethyl)pyridin-3-yl)-5,5-dimethyl-4-oxo-2-thioxoimidazolidin-1-yl)-2-ethylphenoxy)ethyl)piperidin-1-yl)propanamide]
* (0<Y<=25%) | < 100 nM | CCc1cc(N2C(=S)N(c3cnc(C#N)c(C(F)(F)F)c3)C(=O)C23CCC3)ccc1OCCC1CCN(CC(=O)Nc2cc(Cl)cc(NC3CCC(=O)NC3=O)c2)CC1 (stereo not shown) [Cmpd 27, N-(3-chloro-5-(2,6-dioxopiperidin-3-ylamino)phenyl)-2-(4-(2-(4-(7-(6-cyano-5-(trifluoromethyl)pyridin-3-yl)-8-oxo-6-thioxo-5,7-diazaspiro[3.4]octan-5-yl)-2-ethylphenoxy)ethyl)piperidin-1-yl)acetamide]
* (0<Y<=25%) | < 100 nM | CCc1cc(N2C(=S)N(c3cnc(C#N)c(C(F)(F)F)c3)C(=O)C23CCC3)ccc1OCCC1CCN(CC(=O)Nc2cccc(NC3CCC(=O)NC3=O)c2)C(C)(C)C1 (single isomer, unassigned) [Cmpd 54]
* (0<Y<=25%) | < 100 nM | CCc1cc(N2C(=S)N(c3cnc(C#N)c(C(F)(F)F)c3)C(=O)C2(C)C)ccc1OC1CCN(CC(=O)Nc2cc(Cl)cc(NC3CCC(=O)NC3=O)c2)CC1 (stereo not shown) [Cmpd 51, N-(3-chloro-5-(2,6-dioxopiperidin-3-ylamino)phenyl)-2-(4-(4-(3-(6-cyano-5-(trifluoromethyl)pyridin-3-yl)-5,5-dimethyl-4-oxo-2-thioxoimidazolidin-1-yl)-2-ethylphenoxy)piperidin-1-yl)acetamide]
* (0<Y<=25%) | 100 to 500 nM | CC(F)(F)c1cc(N2C(=S)N(c3cnc(C#N)c(C(F)(F)F)c3)C(=O)C2(C)C)ccc1OCCC1CCN(CC(=O)Nc2cc(Cl)cc(NC3CCC(=O)NC3=O)c2)CC1 (stereo not shown) [Cmpd 24, N-(3-chloro-5-(2,6-dioxopiperidin-3-ylamino)phenyl)-2-(4-(2-(4-(3-(6-cyano-5-(trifluoromethyl)pyridin-3-yl)-5,5-dimethyl-4-oxo-2-thioxoimidazolidin-1-yl)-2-(1,1-difluoroethyl)phenoxy)ethyl)piperidin-1-yl)acetamide]
** (25%<Y<=35%) | 500 to 1000 nM | CC1(C)C(=O)N(c2cnc(C#N)c(C(F)(F)F)c2)C(=S)N1c1ccc(OCC2CCN(CC(=O)Nc3cccc(NC4CCC(=O)NC4=O)c3)CC2)c(Cl)c1 (stereo not shown) [Cmpd 7, 2-(4-((2-chloro-4-(3-(6-cyano-5-(trifluoromethyl)pyridin-3-yl)-5,5-dimethyl-4-oxo-2-thioxoimidazolidin-1-yl)phenoxy)methyl)piperidin-1-yl)-N-(3-(2,6-dioxopiperidin-3-ylamino)phenyl)acetamide]
** (25%<Y<=35%) | < 100 nM | CCc1cc(N2C(=S)N(c3cnc(C#N)c(C(F)(F)F)c3)C(=O)C2(C)C)ccc1OCC1CCN(CC(=O)Nc2cccc(NC3CCC(=O)NC3=O)c2)CC1 (stereo not shown) [Cmpd 80, 2-(4-((4-(3-(6-cyano-5-(trifluoromethyl)pyridin-3-yl)-5,5-dimethyl-4-oxo-2-thioxoimidazolidin-1-yl)-2-ethylphenoxy)methyl)piperidin-1-yl)-N-(3-(2,6-dioxopiperidin-3-ylamino)phenyl)acetamide]

The remaining lines, values behind:

Structure (SMILES) | Y (lowest measured AR level normalized to DMSO control) | DC50
CCc1cc(N2C(=S)N(c3ccc(C#N)c(C(F)(F)F)c3)C(=O)C2(C)C)ccc1OCCC1CCN(CC(=O)Nc2cc(F)cc(NC3CCC(=O)NC3=O)c2)CC1 (stereo not shown) [Cmpd 19, 2-(4-(2-(4-(3-(4-cyano-3-(trifluoromethyl)phenyl)-5,5-dimethyl-4-oxo-2-thioxoimidazolidin-1-yl)-2-ethylphenoxy)ethyl)piperidin-1-yl)-N-(3-(2,6-dioxopiperidin-3-ylamino)-5-fluorophenyl)acetamide] | * (0<Y<=25%) | 100 to 500 nM
CCc1cc(N2C(=S)N(c3ccc(C#N)c(C(F)(F)F)c3)C(=O)C2(C)C)ccc1OC1CCN(CC(=O)Nc2cccc(NC3CCC(=O)NC3=O)c2)CC1 (stereo not shown) [Cmpd 50, 2-(4-(4-(3-(4-cyano-3-(trifluoromethyl)phenyl)-5,5-dimethyl-4-oxo-2-thioxoimidazolidin-1-yl)-2-ethylphenoxy)piperidin-1-yl)-N-(3-(2,6-dioxopiperidin-3-ylamino)phenyl)acetamide] | ** (25%<Y<=35%) | 100 to 500 nM
CC1(C)C(=O)N(c2ccc(C#N)c(C(F)(F)F)c2)C(=S)N1c1ccc(OC2CCN(CC(=O)Nc3cccc(NC4CCC(=O)NC4=O)c3)CC2)c(F)c1 (stereo not shown) [Cmpd 1, 2-(4-(4-(3-(4-cyano-3-(trifluoromethyl)phenyl)-5,5-dimethyl-4-oxo-2-thioxoimidazolidin-1-yl)-2-fluorophenoxy)piperidin-1-yl)-N-(3-(2,6-dioxopiperidin-3-ylamino)phenyl)acetamide] | ** (25%<Y<=35%) | < 100 nM
CCc1cc(N2C(=S)N(c3ccc(C#N)c(C(F)(F)F)c3)C(=O)C2(C)C)ccc1OCCC1CCN(CC(=O)Nc2cc(NC3CCC(=O)NC3=O)ccc2F)CC1 (stereo not shown) [Cmpd 18, 2-(4-(2-(4-(3-(4-cyano-3-(trifluoromethyl)phenyl)-5,5-dimethyl-4-oxo-2-thioxoimidazolidin-1-yl)-2-ethylphenoxy)ethyl)piperidin-1-yl)-N-(5-(2,6-dioxopiperidin-3-ylamino)-2-fluorophenyl)acetamide] | * (0<Y<=25%) | 100 to 500 nM
CC1(C)C(=O)N(c2ccc(C#N)c(C(F)(F)F)c2)C(=S)N1c1ccc(OCC2CCN(CC(=O)Nc3cc(Cl)cc(NC4CCC(=O)NC4=O)c3)CC2)c(Cl)c1 (stereo not shown) [Cmpd 9, 2-(4-((2-chloro-4-(3-(4-cyano-3-(trifluoromethyl)phenyl)-5,5-dimethyl-4-oxo-2-thioxoimidazolidin-1-yl)phenoxy)methyl)piperidin-1-yl)-N-(3-chloro-5-(2,6-dioxopiperidin-3-ylamino)phenyl)acetamide] | *** (35%<Y<50%) | 500 to 1000 nM
CCc1cc(N2C(=S)N(c3ccc(C#N)c(C(F)(F)F)c3)C(=O)C2(C)C)ccc1OCCC1(F)CCN(CC(=O)Nc2cc(Cl)cc(NC3CCC(=O)NC3=O)c2)CC1 (stereo not shown) [Cmpd 90, N-(3-chloro-5-(2,6-dioxopiperidin-3-ylamino)phenyl)-2-(4-(2-(4-(3-(4-cyano-3-(trifluoromethyl)phenyl)-5,5-dimethyl-4-oxo-2-thioxoimidazolidin-1-yl)-2-ethylphenoxy)ethyl)-4-fluoropiperidin-1-yl)acetamide] | * (0<Y<=25%) | < 100 nM
CCc1cc(N2C(=S)N(c3cnc(C#N)c(C(F)(F)F)c3)C(=O)C2(C)C)ccc1OCCC1(F)CCN(CC(=O)Nc2cccc(NC3CCC(=O)NC3=O)c2)CC1 (stereo not shown) [Cmpd 89, 2-(4-(2-(4-(3-(6-cyano-5-(trifluoromethyl)pyridin-3-yl)-5,5-dimethyl-4-oxo-2-thioxoimidazolidin-1-yl)-2-ethylphenoxy)ethyl)-4-fluoropiperidin-1-yl)-N-(3-(2,6-dioxopiperidin-3-ylamino)phenyl)acetamide] | * (0<Y<=25%) | < 100 nM
